From US20230219978A1, “COMPOUND HAVING MACROCYCLIC STRUCTURE AND USE THEREOF” (SCINNOHUB PHARMACEUTICAL CO., LTD, priority 2020, published 2023) come the findings set out here.

Holding throughout (type): biochemical
One experiment deals with T1, RET wt (Homo sapiens, UniProt P07949).
T1 construct: purchased Carna 08-159
As to the kind of experiment: In vitro kinase activity assay (mobility shift assay), RET wild type. To be noted: ATP 16 μM, reaction time 60 min. A digest of the protocol: (§1)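 Each enzyme was first exposed to test compound (top 1000 nM, 3-fold dilutions, 10 concentrations, one well each) for 10 min at room temperature. Adding ATP and peptide substrate started the reaction, which proceeded 30-240 min before stopping. Conversion was then measured and curves fitted for IC50.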

The target of another experiment is T2, RET G810R (Homo sapiens, UniProt P07949, G810R).
T2 construct: purchased Proqinase 1724-0000-1
T2 sequence (P07949 29-1114 G810R): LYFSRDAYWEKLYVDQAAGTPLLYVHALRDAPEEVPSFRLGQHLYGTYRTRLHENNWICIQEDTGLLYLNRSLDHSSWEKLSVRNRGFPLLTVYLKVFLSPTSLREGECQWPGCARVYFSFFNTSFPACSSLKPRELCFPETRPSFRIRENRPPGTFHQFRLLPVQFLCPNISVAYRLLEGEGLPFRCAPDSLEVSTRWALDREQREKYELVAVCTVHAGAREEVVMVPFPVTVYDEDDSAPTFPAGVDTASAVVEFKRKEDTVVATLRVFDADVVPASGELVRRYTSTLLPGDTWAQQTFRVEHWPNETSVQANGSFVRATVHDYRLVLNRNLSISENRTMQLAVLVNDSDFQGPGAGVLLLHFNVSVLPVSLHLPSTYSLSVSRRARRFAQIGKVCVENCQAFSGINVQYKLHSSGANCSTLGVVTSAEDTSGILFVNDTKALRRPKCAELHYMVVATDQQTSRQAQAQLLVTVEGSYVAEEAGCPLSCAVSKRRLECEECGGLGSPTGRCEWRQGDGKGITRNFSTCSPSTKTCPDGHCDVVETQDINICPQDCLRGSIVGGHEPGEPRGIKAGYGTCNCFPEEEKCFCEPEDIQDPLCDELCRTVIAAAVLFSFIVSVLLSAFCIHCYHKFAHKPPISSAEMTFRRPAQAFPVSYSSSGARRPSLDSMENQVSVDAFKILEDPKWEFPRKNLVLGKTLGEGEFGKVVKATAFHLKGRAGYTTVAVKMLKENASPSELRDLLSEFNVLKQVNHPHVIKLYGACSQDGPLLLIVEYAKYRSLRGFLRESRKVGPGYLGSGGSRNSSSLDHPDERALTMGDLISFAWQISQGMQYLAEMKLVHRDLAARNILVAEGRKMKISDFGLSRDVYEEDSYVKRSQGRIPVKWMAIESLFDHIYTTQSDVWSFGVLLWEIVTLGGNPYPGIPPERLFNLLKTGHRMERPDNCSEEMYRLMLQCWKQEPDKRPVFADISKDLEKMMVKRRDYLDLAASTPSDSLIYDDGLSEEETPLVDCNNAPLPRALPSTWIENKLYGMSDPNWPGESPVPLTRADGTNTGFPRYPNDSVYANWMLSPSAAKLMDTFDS
As to the kind of experiment: In vitro kinase activity assay (mobility shift assay), RET G810R. Conditions: ATP 201 μM, reaction time 4 h. The essentials:
as §1

The next experiment has as its target T3, RET V804M (Homo sapiens, UniProt P07949, V804M).
T3 construct: purchased signalchem R02-12GG
As to the kind of experiment: In vitro kinase activity assay (mobility shift assay), RET V804M. To be noted: ATP 5.4 μM, reaction time 60 min. A digest of the protocol:
as §1

The next experiment addresses T4, TRKa (Homo sapiens, UniProt P04629).
T4 construct: purchased Carna 08-186
The experiment can be described thus: In vitro kinase activity assay (mobility shift assay), TRKa. Conditions: ATP 47.8 μM, reaction time 30 min. The essentials: as §1

Another experiment has as its target T5, SRC (Homo sapiens, UniProt P12931).
T5 construct: purchased Carna 08-173
As to the kind of experiment: In vitro kinase activity assay (mobility shift assay), SRC. To be noted: ATP 19 μM, reaction time 30 min. As to the method: The IC50 (half inhibitory concentration) values of the compounds were used as an indicator to evaluate the inhibitory effect of the compound on RET wild-type, RET mutant, TRKa, SRC, BTK and/or mutated BTK kinase.
Using the method of Mobility shift assay, the compounds were tested for inhibitory activity against the following kinases: RET wild type, RET mutant, TRKa, SRC, BTK and/or mutated BTK. The initial concentration of the test compound was 1000 nM, 3-fold dilution, 10 concentrations, detected in a well for each concentration.
20 mM hydroxyethylpiperazineethanesulfonic acid (Hepes) (pH 7.5) buffer, 10 mM MgCl2, 1 mM ethylene glycol bis(aminoethyl ether)tetraacetic acid (EGTA), 0.02% polyoxyethylene lauryl ether (Brij35), 0.02 mg/ml […] (BSA), 0.1 mM Na3VO4, 2 mM dithiothreitol (DTT), 1% DMSO.
The test compounds were dissolved in 100% dimethyl sulfoxide (DMSO) system, and prepared as 10 mM for use, and stored in a nitrogen cabinet away from light.
• (1) Preparing 1× kinase reaction buffer. • (2) Preparation of compound concentration gradient: the initial concentration of the compounds was 1000 nM, which was diluted as 100-fold final concentration of solution in 100% dimethyl sulfoxide (DMSO) in a 384-well plate. The compound was accurately 3-fold diluted with the kinase buffer solution, 10 concentrations in total, and the final concentration was 0.0508 nM. The 100-fold final concentration of solution in 100% dimethyl sulfoxide (DMSO) was obtained by dilution in 384 source plate. The liquid separator Echo 550 was used to transfer 250 nl of 100-fold final concentration of compound to the target 384 well plate. 250 nl of DMSO was added to the positive and negative control wells. • (3) 2.5-fold final concentration of kinase solution was prepared by the 1× kinase buffer. • (4) 10 4, of 2.5-fold final concentration of kinase solution was added to the compound well and the positive control well, respectively; 10 4, of 1× kinase buffer was added to the negative control well. • (5) After centrifuging at 1000 rpm for 30 second, the reaction plate was shaken and mixed, followed by incubation at room temperature for 10 min. • (6) a mixed solution of 25/15-fold final concentration of adenosine triphosphate (ATP) and kinase substrate was prepared by 1× kinase buffer. • (7) The mixed solution (15 μL) of 25/15-fold final concentration of adenosine triphosphate (ATP) and substrate was added to initiate the reaction. • (8) 384-well plate was centrifuged at 1000 rpm for 30 second, shaken and mixed well, and then incubated at room temperature for 30-240 min. • (9) After stopping the kinase reaction, the plate was centrifugated at 1000 rpm for 30 second, shaken and mixed well. • (10)The conversion rate was read with Caliper EZ Reader.
wherein Conversion%_sample is the conversion rate reading of the sample; Conversion%_min: the mean value of negative control wells, representing the conversion rate reading of wells without enzymes; Conversion%_max: the mean value of positive control wells, representing the conversion rate reading of wells without compound inhibition.
The log value of concentration was taken as the X axis, and the percentage inhibition rate was taken as the Y axis. Graphpad 6.0 analysis software was used to fit the dose-response curve, so as to obtain the IC50 value of each compound on the enzyme activity

The target in the next experiment is T6, BTK (Homo sapiens, UniProt Q06187).
T6 construct: purchased Carna 08-180
T6 sequence (Q06187 whole entry): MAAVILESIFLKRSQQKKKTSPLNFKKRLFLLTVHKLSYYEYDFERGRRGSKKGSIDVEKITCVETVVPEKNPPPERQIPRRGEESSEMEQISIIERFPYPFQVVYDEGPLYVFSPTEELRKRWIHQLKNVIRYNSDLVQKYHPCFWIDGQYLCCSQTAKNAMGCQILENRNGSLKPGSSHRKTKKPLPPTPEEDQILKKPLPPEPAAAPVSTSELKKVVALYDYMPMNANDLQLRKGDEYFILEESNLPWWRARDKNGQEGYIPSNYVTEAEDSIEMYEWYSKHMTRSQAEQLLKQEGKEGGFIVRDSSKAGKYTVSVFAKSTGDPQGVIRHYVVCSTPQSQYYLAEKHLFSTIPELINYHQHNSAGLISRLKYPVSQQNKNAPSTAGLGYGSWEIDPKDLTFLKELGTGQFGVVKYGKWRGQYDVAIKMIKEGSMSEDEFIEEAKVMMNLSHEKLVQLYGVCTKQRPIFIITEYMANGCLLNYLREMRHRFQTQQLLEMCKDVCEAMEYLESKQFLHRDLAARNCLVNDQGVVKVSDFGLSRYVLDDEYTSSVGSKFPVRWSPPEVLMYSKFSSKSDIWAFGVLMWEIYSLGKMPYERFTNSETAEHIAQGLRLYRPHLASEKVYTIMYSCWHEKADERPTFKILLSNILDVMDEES
The experiment can be described thus: In vitro kinase activity assay (mobility shift assay), BTK. Conditions: ATP 71 μM, reaction time 30 min. The essentials:
as §1

The target of a further experiment is T7, BTK C481S (Homo sapiens, UniProt Q06187, C481S).
T7 construct: purchased Carna 08-547
T7 sequence (Q06187 whole entry C481S): as the sequence (Q06187 whole entry) above, with C481S counted along it
As to the kind of experiment: In vitro kinase activity assay (mobility shift assay), BTK C481S. Conditions: ATP 90 μM, reaction time 30 min. A digest of the protocol: as §1

T1 sequence (P07949 29-1114): as the sequence (P07949 29-1114 G810R) above, with R782G counted along it
T4 sequence (P04629 33-796): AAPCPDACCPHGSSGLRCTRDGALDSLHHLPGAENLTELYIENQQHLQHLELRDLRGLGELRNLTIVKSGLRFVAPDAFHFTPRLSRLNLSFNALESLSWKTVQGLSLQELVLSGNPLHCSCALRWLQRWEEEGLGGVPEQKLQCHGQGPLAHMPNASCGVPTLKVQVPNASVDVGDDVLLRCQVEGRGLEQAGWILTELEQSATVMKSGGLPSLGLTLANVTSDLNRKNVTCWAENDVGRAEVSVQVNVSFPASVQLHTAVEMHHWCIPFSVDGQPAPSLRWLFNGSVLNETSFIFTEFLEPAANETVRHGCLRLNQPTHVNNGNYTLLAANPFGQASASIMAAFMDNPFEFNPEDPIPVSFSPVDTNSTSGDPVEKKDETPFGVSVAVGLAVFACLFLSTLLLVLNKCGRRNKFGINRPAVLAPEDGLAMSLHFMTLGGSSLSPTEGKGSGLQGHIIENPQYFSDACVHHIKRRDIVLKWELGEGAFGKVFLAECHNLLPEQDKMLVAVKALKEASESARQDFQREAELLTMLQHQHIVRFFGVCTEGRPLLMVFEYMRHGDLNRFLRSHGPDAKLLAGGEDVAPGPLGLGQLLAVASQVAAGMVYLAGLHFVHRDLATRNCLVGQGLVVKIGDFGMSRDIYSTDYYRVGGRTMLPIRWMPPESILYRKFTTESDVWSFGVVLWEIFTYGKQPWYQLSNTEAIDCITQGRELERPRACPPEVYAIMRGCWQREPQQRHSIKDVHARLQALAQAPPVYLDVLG
T3 sequence (P07949 29-1114 V804M): as the sequence (P07949 29-1114 G810R) above, with V776M, R782G counted along it
T5 sequence (P12931 whole entry): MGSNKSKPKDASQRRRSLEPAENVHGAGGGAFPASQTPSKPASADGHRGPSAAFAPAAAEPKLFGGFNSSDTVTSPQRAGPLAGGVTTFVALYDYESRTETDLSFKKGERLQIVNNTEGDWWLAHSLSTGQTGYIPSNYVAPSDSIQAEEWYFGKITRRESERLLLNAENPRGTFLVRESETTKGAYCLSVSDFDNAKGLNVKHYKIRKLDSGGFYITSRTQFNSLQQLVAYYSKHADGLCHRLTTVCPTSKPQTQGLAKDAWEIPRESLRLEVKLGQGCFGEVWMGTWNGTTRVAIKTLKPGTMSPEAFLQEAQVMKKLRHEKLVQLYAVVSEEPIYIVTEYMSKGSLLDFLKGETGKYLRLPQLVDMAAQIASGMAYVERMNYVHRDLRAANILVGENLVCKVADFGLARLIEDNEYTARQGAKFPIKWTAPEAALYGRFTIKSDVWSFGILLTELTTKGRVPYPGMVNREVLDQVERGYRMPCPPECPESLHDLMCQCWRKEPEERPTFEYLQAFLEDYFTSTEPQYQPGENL

`C[C@H]1CNC(=O)c2cnn3cc(-c4ccc(Oc5ccccc5)cc4)c(nc23)NCc2cc(F)cnc2O1` [Compound 10, (S, 1^3E, 1^4E)-1^6-(4-phenoxyphenyl)-4^5-fluoro-6-methyl-5-oxa-2,8-diaza-1(5,3)-pyrazolo[1,5-a]pyrimidina-4(3,2)-pyridinacyclononaphan-9-one]: the IC50 at RET wt was 144 nM; on RET G810R it was more than 10000 nM; on RET V804M, more than 10000 nM; on TRKa it was more than 10000 nM; at SRC, more than 10000 nM; on BTK it was more than 10000 nM. Further, the IC50 on BTK C481S is more than 10000 nM.

As for `C[C@H]1CNC(=O)c2cnn3cc(-c4ccccc4)c(nc23)NCc2cc(F)cnc2O1` [Example 1, (S, 1^3E, 1^4E)-4^5-fluoro-6-methyl-1^6-phenyl-5-oxa-2,8-diaza-1(5,3)-pyrazolo[1,5-a]pyrimidina-4(3,2)-pyridinacyclononaphan-9-one], the IC50 on RET wt was 11 nM; at RET G810R, 42.1 nM; at RET V804M, more than 10000 nM; at TRKa it was more than 10000 nM; at SRC, 10.8 nM; at BTK, 33.5 nM. Moreover, on BTK C481S, the 50% inhibitory concentration (IC50) came out at 31.3 nM.
